# Results as given in BindingDB's records for doi:10.7270/Q2902274 (Burnham Center For Chemical Genomics, 2010).
# Target: Eukaryotic translation initiation factor 4H (Homo sapiens, UniProt Q15056)
# Assay: eIF4H inhibition in translation initiation, SAR follow-up (AID 435011)
compound,measurement,value
COc1cc([CH+][N-]NC(=O)c2ccc(O)cc2)ccc1OCC(=O)Nc1cccc([N+](=O)[O-])c1,IC50,> 100 µM
